Laboratory results published in patent US11787802B2, “Dihydrobenzimidazolones for medical treatment” (C4 Therapeutics, Inc., priority 2017, dated 2023).

Each compound was assayed against hCereblon(M1-L442)_hDDB1(M1-H1140) (Homo sapiens (Human), UniProt Q96SW2) (assay: Fluorescence direct binding protocol (tryptophan fluorescence titration)). Conditions: fluorescence titration at 20° C., excited at 280 nm, recorded at 340 nm; protein 5.0 E−8 M; assay buffer 50 mM Hepes 7.4 200 mM NaCl; read-out: Fluorescence h-Cereblon_DDB1 Mean Kd_EQ.
Description: Fluorescence Direct Binding Protocol
Determination of the affinities of compounds to protein containing one or more tryptophan is measurable by monitoring the fluorescence emission in direct mode. The measurements depending on the protein available amounts are performed either manually in a cuvette on ISS-PC1 photon counting spectrofluorometer or automatically in well plates on a fluorescence plate reader device. Fluorescence titrations are performed at 20° C. in the chosen binding assay buffer by using a defined constant protein concentration against ligand concentration variations. Small aliquots of known ligand concentration solubilized in DMSO were added and the fluorescence, excited at 280 nm, was recorded at 340 nm. The fluorescence intensity was corrected for protein dilution and for the filter effect (Birdsall et al.^69). The corrected fluorescence intensity was plotted against the ligand concentration and fitted using a four-parameter sigmoidal function, from which the equilibrium dissociation constant Kd was computed using the law of mass action assuming a 1:1 protein-ligand complex (Eftink, 1997^70).
Process • 1) Optimization of measurement parameters to minimize protein consumption and to minimize the dilution effect and the DMSO content • 2) Titration measurements of the protein against ligand by at least 12 titration steps to obtain a good s-curve fit • 3) Repeat the same titration measurements with the ligand alone to enable correction • 4) Check the stability of the protein once by titration against DMSO alone • 5) Determination of the molar extinction coefficients of the ligand at 280 and 340 nm with help of an UV-spectrophotometer • 6) Use Excel template for the correction of the measured raw data • 7) Use GraphPad Prism software for the quadratic binding fit and the KD evaluation.

hCereblon(M1-L442)_hDDB1(M1-H1140), sequence (Q96SW2 whole entry): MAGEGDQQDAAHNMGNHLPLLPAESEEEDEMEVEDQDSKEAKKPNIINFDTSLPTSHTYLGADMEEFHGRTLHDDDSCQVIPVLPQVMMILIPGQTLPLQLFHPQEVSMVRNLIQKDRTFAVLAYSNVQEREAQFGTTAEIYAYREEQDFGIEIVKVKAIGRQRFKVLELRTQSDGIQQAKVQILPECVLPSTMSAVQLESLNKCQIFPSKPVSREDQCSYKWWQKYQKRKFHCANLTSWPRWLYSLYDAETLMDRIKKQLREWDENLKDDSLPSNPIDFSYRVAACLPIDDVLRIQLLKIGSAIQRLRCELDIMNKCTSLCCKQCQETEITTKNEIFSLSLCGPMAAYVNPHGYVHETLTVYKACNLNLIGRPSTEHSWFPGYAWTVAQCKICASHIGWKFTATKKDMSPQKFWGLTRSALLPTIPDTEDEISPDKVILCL
hCereblon(M1-L442)_hDDB1(M1-H1140), sequence (Q16531 whole entry partner): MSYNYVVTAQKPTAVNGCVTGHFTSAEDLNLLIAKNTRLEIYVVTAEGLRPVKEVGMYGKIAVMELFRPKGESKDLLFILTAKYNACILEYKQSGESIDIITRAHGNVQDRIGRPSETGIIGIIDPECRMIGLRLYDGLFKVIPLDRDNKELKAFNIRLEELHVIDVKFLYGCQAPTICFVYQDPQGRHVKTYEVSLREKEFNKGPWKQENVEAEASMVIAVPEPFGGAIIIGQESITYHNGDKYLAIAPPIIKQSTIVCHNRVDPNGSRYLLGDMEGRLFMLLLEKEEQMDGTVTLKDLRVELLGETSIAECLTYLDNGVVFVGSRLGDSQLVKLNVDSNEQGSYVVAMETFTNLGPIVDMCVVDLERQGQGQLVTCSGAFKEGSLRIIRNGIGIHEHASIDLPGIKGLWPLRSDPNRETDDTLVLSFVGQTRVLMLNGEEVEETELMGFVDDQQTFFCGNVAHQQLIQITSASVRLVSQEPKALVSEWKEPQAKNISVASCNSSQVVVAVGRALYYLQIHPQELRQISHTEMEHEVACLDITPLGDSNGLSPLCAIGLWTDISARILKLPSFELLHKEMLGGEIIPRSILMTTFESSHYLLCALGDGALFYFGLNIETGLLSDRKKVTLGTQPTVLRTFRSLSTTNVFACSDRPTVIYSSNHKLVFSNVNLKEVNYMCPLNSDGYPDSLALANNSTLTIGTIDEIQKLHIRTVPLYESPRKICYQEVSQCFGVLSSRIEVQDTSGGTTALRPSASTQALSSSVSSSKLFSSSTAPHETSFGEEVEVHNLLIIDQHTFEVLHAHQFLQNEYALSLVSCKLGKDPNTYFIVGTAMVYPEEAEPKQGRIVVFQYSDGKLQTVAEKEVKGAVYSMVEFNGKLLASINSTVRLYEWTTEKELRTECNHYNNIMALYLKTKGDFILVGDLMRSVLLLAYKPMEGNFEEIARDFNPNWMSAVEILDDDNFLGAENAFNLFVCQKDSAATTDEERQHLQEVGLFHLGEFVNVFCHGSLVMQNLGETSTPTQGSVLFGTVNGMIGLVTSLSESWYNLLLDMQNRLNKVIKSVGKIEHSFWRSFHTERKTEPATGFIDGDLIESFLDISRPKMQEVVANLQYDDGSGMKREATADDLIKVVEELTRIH

SMILES	Kd [nM]
CNC(=O)c1ccc2c(c1)nc(-c1cc(-c3cncn3C)nc3ccccc13)n2-c1ccc2[nH]c(=O)[nH]c2c1 [Example 2, N-Methyl-2-(2-(1-methyl-1H-imidazol-5-yl)quinolin-4-yl)-2′-oxo-2′,3′-dihydro-1′H-[1,5′-bibenzo[d]imidazole]-5-carboxamide]	28
CNC(=O)c1ccc2c(c1)nc(C)n2-c1ccc2[nH]c(=O)[nH]c2c1 [Example 5, N,2-Dimethyl-2′-oxo-2′,3′-dihydro-1′H-[1,5′-bibenzo[d]imidazole]-5-carboxamide]	180
COC(=O)c1ccc(Nc2ccc3[nH]c(=O)[nH]c3c2)c(N)c1 [Example 9, Methyl 3-amino-4-((2-oxo-2,3-dihydro-1H-benzo[d]imidazol-5-yl)amino)benzoate]	29
CNC(=O)c1ccc2c(c1)nc(-c1ccccc1)n2-c1ccc2[nH]c(=O)[nH]c2c1 [Example 10, N-Methyl-2′-oxo-2-phenyl-2′,3′-dihydro-1′H-[1,5′-bibenzo[d]imidazole]-5-carboxamide]	88
CNC(=O)c1ccc2c(c1)nc(C(F)(F)F)n2-c1ccc2[nH]c(=O)[nH]c2c1 [Example 13, N-Methyl-2′-oxo-2-(trifluoromethyl)-2′,3′-dihydro-1′H-[1,5′-bibenzo[d]imidazole]-5-carboxamide]	7
CCCc1nc2cc(C(=O)NC)ccc2n1-c1ccc2[nH]c(=O)[nH]c2c1 [Example 14, N-Methyl-2′-oxo-2-propyl-2′,3′-dihydro-1′H-[1,5′-bibenzo[d]imidazole]-5-carboxamide]	321
O=c1[nH]c2ccc(-c3ccnc(Cl)c3)cc2[nH]1 [Example 20, 5-(2-Chloropyridin-4-yl)-1H-benzo[d]imidazol-2(3H)-one]	68
Cc1ncc(-c2ccc3[nH]c(=O)[nH]c3c2)s1 [Example 21, 5-(2-Methylthiazol-5-yl)-1H-benzo[d]imidazol-2(3H)-one]	5
CC(=O)N1CCN(C(=O)c2ccc3[nH]c(=O)[nH]c3c2)CC1 [Example 22, 5-(4-Acetylpiperazine-1-carbonyl)-1H-benzo[d]imidazol-2(3H)-one]	103
Cn1c(=O)[nH]c2ncc(C(=O)Nc3ccccc3)cc21 [Example 27, 1-Methyl-2-oxo-N-phenyl-3H-imidazo[4,5-b]pyridine-6-carboxamide]	1
CNC(=O)c1ccc2c(c1)nc(Cc1cccc(OC)c1)n2-c1ccc2[nH]c(=O)[nH]c2c1 [Example 28, 2-(3-Methoxybenzyl)-N-methyl-2′-oxo-2′,3′-dihydro-1′H-[1,5′-bibenzo[d]imidazole]-5-carboxamide]	12
CNC(=O)c1ccc2nc(C(C)C)n(-c3ccc4[nH]c(=O)[nH]c4c3)c2c1 [Example 30, 2-Isopropyl-N-methyl-2′-oxo-2′,3′-dihydro-1′H-[1,5′-bibenzo[d]imidazole]-6-carboxamide]	1
CC(C)c1nccn1-c1ccc2[nH]c(=O)[nH]c2c1 [Example 32, 5-(2-Isopropyl-1H-imidazol-1-yl)-1,3-dihydro-2H-benzo[d]imidazol-2-one]	6
O=C1CCCN1c1ccc2[nH]c(=O)[nH]c2c1 [Example 33, 5-(2-Oxopyrrolidin-1-yl)-1,3-dihydro-2H-benzo[d]imidazol-2-one]	24
CC(C)c1nc2ccccc2n1-c1ccc2c(c1)[nH]c(=O)n2C [Example 34, 2-Isopropyl-1′-methyl-1′,3′-dihydro-2′H-[1,5′-bibenzo[d]imidazol]-2′-one]	19
O=c1[nH]c2ccc(-c3cc(F)ccc3F)cc2[nH]1 [Example 37, 5-(2,5-Difluoro-phenyl)-1,3-dihydro-benzoimidazol-2-one]	10
O=c1[nH]c2ccc(-c3ccc(F)cc3F)cc2[nH]1 [Example 38, 5-(2,4-Difluoro-phenyl)-1,3-dihydro-benzoimidazol-2-one]	82
COc1ccc(Cc2ccc3[nH]c(=O)[nH]c3c2)cc1 [Example 39, 5-[(4-Methoxyphenyl)methyl]-1,3-dihydrobenzimidazol-2-one]	6

Next, values leading:

Kd [nM]	SMILES
587	CNC(=O)c1ccc(Nc2ccc3[nH]c(=O)[nH]c3c2)c(N)c1 [Example 1, 3-Amino-N-methyl-4-[(2-oxo-1,3-dihydrobenzimidazol-5-yl)amino]benzamide]
39	CNC(=O)c1ccc2c(c1)nc(-c1ccnc3ccccc13)n2-c1ccc2[nH]c(=O)[nH]c2c1 [Example 3, N-Methyl-2′-oxo-2-(quinolin-4-yl)-2′,3′-dihydro-1′H-[1,5′-bibenzo[d]imidazole]-5-carboxamide]
36	CCc1nc2cc(C(=O)NC)ccc2n1-c1ccc2[nH]c(=O)[nH]c2c1 [Example 4, 2-Ethyl-N-methyl-2′-oxo-2′,3′-dihydro-1′H-[1,5′-bibenzo[d]imidazole]-5-carboxamide]
54	Nc1ccccc1Nc1ccc2[nH]c(=O)[nH]c2c1 [Example 6, 5-((2-Aminophenyl)amino)-1H-benzo[d]imidazol-2(3H)-one]
27	O=c1[nH]c2ccc(-n3c(-c4ccnc5ccccc45)nc4ccccc43)cc2[nH]1 [Example 7, 2-(Quinolin-4-yl)-1′H-[1,5′-bibenzo[d]imidazol]-2′(3′H)-one]
6	Cn1cncc1-c1cc(-c2nc3ccccc3n2-c2ccc3[nH]c(=O)[nH]c3c2)c2ccccc2n1 [Example 8, 2-(2-(1-Methyl-1H-imidazol-5-yl)quinolin-4-yl)-1′H-[1,5′-bibenzo[d]imidazol]-2′(3′H)-one]
8	CNC(=O)c1ccc2c(c1)nc(-c1ccncc1)n2-c1ccc2[nH]c(=O)[nH]c2c1 [Example 11, N-Methyl-2′-oxo-2-(pyridin-4-yl)-2′,3′-dihydro-1′H-[1,5′-bibenzo[d]imidazole]-5-carboxamide]
1	O=c1[nH]c2ccc(-n3ccnc3-c3ccnc4ccccc34)cc2[nH]1 [Example 12, 5-(2-(Quinolin-4-yl)-1H-imidazol-1-yl)-1H-benzo[d]imidazol-2(3H)-one]
49	CNC(=O)c1ccc2c(c1)nc(-c1cnc[nH]1)n2-c1ccc2[nH]c(=O)[nH]c2c1 [Example 15, 2-(1H-Imidazol-4-yl)-N-methyl-2′-oxo-2′,3′-dihydro-1′H-[1,5′-bibenzo[d]imidazole]-5-carboxamide]
11	CNC(=O)c1ccc2c(c1)nc(C(C)C)n2-c1ccc2[nH]c(=O)[nH]c2c1 [Example 16, 2-Isopropyl-N-methyl-2′-oxo-2′,3′-dihydro-1′H-[1,5′-bibenzo[d]imidazole]-5-carboxamide]
42	CNC(=O)c1ccc2c(c1)nc(-c1cc(-c3cncn3C)nc3ccccc13)n2-c1ccc2c(c1)n(C)c(=O)n2C [Example 17, N,1′,3′-Trimethyl-2-(2-(1-methyl-1H-imidazol-5-yl)quinolin-4-yl)-2′-oxo-2′,3′-dihydro-1′H-[1,5′-bibenzo[d]imidazole]-5-carboxamide]
16	CN(C)C(=O)c1ccc2c(c1)nc(-c1cc(-c3cncn3C)nc3ccccc13)n2-c1ccc2[nH]c(=O)[nH]c2c1 [Example 18, N,N-Dimethyl-2-(2-(1-methyl-1H-imidazol-5-yl)quinolin-4-yl)-2′-oxo-2′,3′-dihydro-1′H-[1,5′-bibenzo[d]imidazole]-5-carboxamide]
7	O=c1[nH]c2ccc(-c3cccnc3)cc2[nH]1 [Example 19, 5-(Pyridin-3-yl)-1H-benzo[d]imidazol-2(3H)-one]
3	CC(=O)N1CCC(NC(=O)c2ccc3[nH]c(=O)[nH]c3c2)CC1 [Example 23, N-(1-Acetylpiperidin-4-yl)-2-oxo-2,3-dihydro-1H-benzo[d]imidazole-5-carboxamide]
1	O=C(c1ccc2[nH]c(=O)[nH]c2c1)N1CCc2ccccc21 [Example 24, 5-(Indoline-1-carbonyl)-1H-benzo[d]imidazol-2(3H)-one]
111	Cn1c(=O)n(C)c2cc(NC(=O)c3ccco3)ccc21 [Example 25, N-(1,3-Dimethyl-2-oxo-benzimidazol-5-yl)furan-2-carboxamide]
41	O=c1[nH]c2ccc(CCCc3ccccc3)nc2[nH]1 [Example 26, 5-(3-Phenyl-propyl)-1,3-dihydro-imidazo[4,5-b]pyridin-2-one]
20	CC(=O)NC1CCN(C(=O)c2ccc3[nH]c(=O)[nH]c3c2)CC1 [Example 29, N-(1-(2-Oxo-2,3-dihydro-1H-benzo[d]imidazole-5-carbonyl)piperidin-4-yl)acetamide]
7	Cn1cncc1-c1cc(-c2nc3ccccc3n2-c2ccc3c(c2)n(C)c(=O)n3C)c2ccccc2n1 [Example 31, 1′,3′-Dimethyl-2-(2-(1-methyl-1H-imidazol-5-yl)quinolin-4-yl)-1′,3′-dihydro-2′H-[1,5′-bibenzo[d]imidazol]-2′-one]
24	CC(C)c1nc2ccccc2n1-c1ccc2[nH]c(=O)n(C)c2c1 [Example 35, 2-Isopropyl-3′-methyl-1′,3′-dihydro-2′H-[1,5′-bibenzo[d]imidazol]-2′-one]
77	O=c1[nH]c2cnc(-c3ccc(F)cc3)cc2[nH]1 [Example 36, 6-(4-Fluoro-phenyl)-1,3-dihydro-imidazo[4,5-c]pyridin-2-one]
